Laboratory results published in paper PMC8620390, “New Multi-Targeted Antiproliferative Agents: Design and Synthesis of IC261-Based Oxindoles as Potential Tubulin, CK1 and EGFR Inhibitors” (Pharmaceuticals, 2021).

Assays:
MCF-7 = assay: Two-dose antiproliferative screening, SRB assay, MCF-7; assay type: cell-based; conditions: Homo sapiens, MCF7, 72 h, triplicates; for inhibition at 1 µM: read-out: Growth Inhibition (%) MCF-7 1 μM Average; for inhibition at 10 µM: read-out: Growth Inhibition (%) MCF-7 10 μM Average
Description: (§1) MCF-7(breast adenocarcinoma), PC-3 (prostate cancer) and COLO-205 (colorectal cancer) were obtained from Nawah Scientific inc., (Mokatam, Cairo, Egypt). Cells were maintained in Dulbecco’s Modified Eagle’s media (DMEM media) supplemented with […] of streptomycin, 100 units/mL of penicillin and 10% of heat-inactivated fetal bovine serum in humidified, 5% (v/v) CO2 atmosphere at 37 °C.
(§2) Cell viability was assessed by the sulforhodamine B (SRB) assay. Aliquots of cell suspension (5 × 10^3 cells, 100 μL) were transferred into 96 well plates and incubated in complete media for 24 h. Cells were treated with another aliquot media (100 μL) containing compounds 3a–f, 4a–f, 6a–f, 7a–f, 9a–b at concentrations of 1 and 10 μM). After 72 h of drug exposure, cells were fixed by replacing media with trichloroacetic acid (TCA, 10%, 150 μL) and incubated at 4 °C for 1 h. The TCA solution was removed, and the cells were washed five times with distilled water. Aliquots of SRB solution (0.4%w/v, 70 μL) were added and incubated in a dark place at room temperature for 10 min. Plates were washed three times with 1% acetic acid and allowed to air dry overnight. Then, a solution of TRIS base and TRIS HCl (TRIS buffer, 10 mM, 150 μL) was added to dissolve protein bound SRB stain. The absorbance was measured at 540 nm using BMGLABTECH®–FLUOstar omega micro-plate reader (Ortenberg, Germany).

PC-3 = assay: Two-dose antiproliferative screening, SRB assay, PC-3; assay type: cell-based; conditions: triplicates; for inhibition at 1 µM / inhibition at 10 µM: Homo sapiens, PC-3, 72 h; for inhibition at 1 µM: read-out: Growth Inhibition (%) PC-3 1 μM Average; for inhibition at 10 µM: read-out: Growth Inhibition (%) PC-3 10 μM Average; for Growth Inhibition (%) PC-3 10 μM Average: 72 h
Description: as §1, §2

COLO-205 = assay: Two-dose antiproliferative screening, SRB assay, COLO-205; assay type: cell-based, human; conditions: triplicates; for inhibition at 1 µM / inhibition at 10 µM: Homo sapiens, COLO 205, 72 h; for inhibition at 1 µM: read-out: Growth Inhibition (%) COLO-205 1 μM Average; for inhibition at 10 µM: read-out: Growth Inhibition (%) COLO-205 10 μM Average
Description: as §1, §2

COc1cc(/C=C2/C(=O)Nc3ccccc32)cc(OC)c1OC [Compound 3a, (E)-3-(3,4,5-trimethoxybenzylidene)indolin-2-one]
inhibition at 1 µM (MCF-7): 1.17%
inhibition at 10 µM (MCF-7): 3.44%
inhibition at 1 µM (PC-3): 1.92%
inhibition at 10 µM (PC-3): 20.4%
inhibition at 1 µM (COLO-205): 1.18%
inhibition at 10 µM (COLO-205; 10 μM): 4.71%

COc1cc(/C=C2/C(=O)Nc3cc(Cl)ccc32)cc(OC)c1OC [Compound 3b, (E)-6-chloro-3-(3,4,5-trimethoxybenzylidene)indolin-2-one]
inhibition at 1 µM (MCF-7): 1.14%
inhibition at 10 µM (MCF-7): 41.2%
inhibition at 1 µM (PC-3): 7.69%
inhibition at 10 µM (PC-3): 39%
inhibition at 1 µM (COLO-205): 5.7%
inhibition at 10 µM (COLO-205; 10 μM): 32.6%

COc1cc(/C=C2/C(=O)Nc3ccc(Cl)cc32)cc(OC)c1OC [Compound 3c, (E)-5-chloro-3-(3,4,5-trimethoxybenzylidene)indolin-2-one]
inhibition at 1 µM (MCF-7): 1.06%
inhibition at 10 µM (MCF-7): 8.56%
inhibition at 1 µM (PC-3): 1.42%
inhibition at 10 µM (PC-3): 14.3%
inhibition at 1 µM (COLO-205): 2.86%
inhibition at 10 µM (COLO-205; 10 μM): 6.41%

COc1cc(/C=C2/C(=O)Nc3ccc(F)cc32)cc(OC)c1OC [Compound 3d, (E)-5-fluoro-3-(3,4,5-trimethoxybenzylidene)indolin-2-one]
inhibition at 1 µM (MCF-7): 0.98%
inhibition at 10 µM (MCF-7): 3.6%
inhibition at 1 µM (PC-3): 2.02%
inhibition at 10 µM (PC-3): 1.91%
inhibition at 1 µM (COLO-205): 7.01%
inhibition at 10 µM (COLO-205; 10 μM): 11.8%

COc1ccc2c(c1)/C(=C\c1cc(OC)c(OC)c(OC)c1)C(=O)N2 [Compound 3e, (E)-5-methoxy-3-(3,4,5-trimethoxybenzylidene)indolin-2-one]
inhibition at 1 µM (MCF-7): 21%
inhibition at 10 µM (MCF-7): 65.3%
Growth Inhibition (%) PC-3 10 μM Average (PC-3): 61.38%
inhibition at 1 µM (PC-3): 32.9%
inhibition at 10 µM (PC-3): 52 to 72%
inhibition at 1 µM (COLO-205): 2.34%
inhibition at 10 µM (COLO-205; 10 μM): 18.6%

COc1cc(/C=C2/C(=O)Nc3ncccc32)cc(OC)c1OC [Compound 3f, (E)-3-(3,4,5-trimethoxybenzylidene)-1,3-dihydro-2H-pyrrolo[2,3-b] pyridin-2-one]
inhibition at 1 µM (MCF-7): 0.36%
inhibition at 10 µM (MCF-7): 4.53%
inhibition at 1 µM (PC-3): 1.29%
inhibition at 10 µM (PC-3): 3.57%
inhibition at 1 µM (COLO-205): 1.52%
inhibition at 10 µM (COLO-205; 10 μM): 9.13%

COc1cc(OC)c(/C=C2/C(=O)Nc3ncccc32)c(OC)c1 [Compound 4f, (E)-3-(2,4,6-trimethoxybenzylidene)-1,3-dihydro-2H-pyrrolo[2,3-b] pyridin-2-one]
inhibition at 1 µM (MCF-7): 11.5%
inhibition at 10 µM (MCF-7): 65.8%
inhibition at 1 µM (PC-3): 23%
inhibition at 10 µM (PC-3): 69.1%
inhibition at 1 µM (COLO-205): 7.64%
inhibition at 10 µM (COLO-205; 10 μM): 63.8%

COc1cc(/C=C2/C(=O)N(Cc3ccccc3)c3ccccc32)cc(OC)c1OC [Compound 6a, (E)-1-Benzyl-3-(3,4,5-trimethoxybenzylidene)indolin-2-one]
inhibition at 1 µM (MCF-7): 1.74%
inhibition at 10 µM (MCF-7): 48.5%
inhibition at 1 µM (PC-3): 4.3%
inhibition at 10 µM (PC-3): 5.03%
inhibition at 1 µM (COLO-205): 2.46%
inhibition at 10 µM (COLO-205; 10 μM): 4.97%

COc1cc(/C=C2/C(=O)N(Cc3ccc(Cl)cc3)c3ccccc32)cc(OC)c1OC [Compound 6b, (E)-1-(4-Chlorobenzyl)-3-(3,4,5-trimethoxybenzylidene)indolin-2-one]
inhibition at 1 µM (MCF-7): 1.13%
inhibition at 10 µM (MCF-7): 32.2%
inhibition at 1 µM (PC-3): 1.04%
inhibition at 10 µM (PC-3): 28.9%
inhibition at 1 µM (COLO-205): 3.9%
inhibition at 10 µM (COLO-205; 10 μM): 45.8%

COc1cc(/C=C2/C(=O)N(Cc3ccc(F)cc3)c3ccccc32)cc(OC)c1OC [Compound 6c, (E)-1-(4-Fluorobenzyl)-3-(3,4,5-trimethoxybenzylidene)indolin-2-one]
inhibition at 1 µM (MCF-7): 5.68%
inhibition at 10 µM (MCF-7): 25%
inhibition at 1 µM (PC-3): 0.69%
inhibition at 10 µM (PC-3): 8.22%
inhibition at 1 µM (COLO-205): 4.66%
inhibition at 10 µM (COLO-205; 10 μM): 13.6%

COc1cc(/C=C2/C(=O)N(Cc3ccccc3)c3cc(Cl)ccc32)cc(OC)c1OC [Compound 6d, (E)-1-benzyl-6-chloro-3-(3,4,5-trimethoxybenzylidene)indolin-2-one]
inhibition at 1 µM (MCF-7): 0.68%
inhibition at 10 µM (MCF-7): 48.4%
inhibition at 1 µM (PC-3): 4.24%
inhibition at 10 µM (PC-3): 7.34%
inhibition at 1 µM (COLO-205): 2.38%
inhibition at 10 µM (COLO-205; 10 μM): 8.68%

COc1cc(OC)c(/C=C2/C(=O)N(Cc3ccccc3)c3ccccc32)c(OC)c1 [Compound 7a, (E)-1-benzyl-3-(2,4,6-trimethoxybenzylidene)indolin-2-one]
inhibition at 1 µM (MCF-7): 0.6%
inhibition at 10 µM (MCF-7): 15.3%
inhibition at 1 µM (PC-3): 0.65%
inhibition at 10 µM (PC-3): 8.59%
inhibition at 1 µM (COLO-205): 11.9%
inhibition at 10 µM (COLO-205; 10 μM): 20%

COc1cc(OC)c(/C=C2/C(=O)N(Cc3ccc(Cl)cc3)c3ccccc32)c(OC)c1 [Compound 7b, (E)-1-(4-chlorobenzyl)-3-(2,4,6-trimethoxybenzylidene)indolin-2-one]
inhibition at 1 µM (MCF-7): 3.81%
inhibition at 10 µM (MCF-7): 5.48%
inhibition at 1 µM (PC-3): 1.05%
inhibition at 10 µM (PC-3): 3.15%
inhibition at 1 µM (COLO-205): 3%
inhibition at 10 µM (COLO-205; 10 μM): 3.33%

COc1cc(OC)c(/C=C2/C(=O)N(Cc3ccc(F)cc3)c3ccccc32)c(OC)c1 [Compound 7c, (E)-1-(4-fluorobenzyl)-3-(2,4,6-trimethoxybenzylidene)indolin-2-one]
inhibition at 1 µM (MCF-7): 4.08%
inhibition at 10 µM (MCF-7): 25.9%
inhibition at 1 µM (PC-3): 0.89%
inhibition at 10 µM (PC-3): 13.8%
inhibition at 1 µM (COLO-205): 4.66%
inhibition at 10 µM (COLO-205; 10 μM): 18.3%

COc1cc(OC)c(/C=C2/C(=O)N(Cc3ccccc3)c3cc(Cl)ccc32)c(OC)c1 [Compound 7d, (E)-1-benzyl-6-chloro-3-(2,4,6-trimethoxybenzylidene)indolin-2-one]
inhibition at 1 µM (MCF-7): 0.49%
inhibition at 10 µM (MCF-7): 40.5%
inhibition at 1 µM (PC-3): 1.47%
inhibition at 10 µM (PC-3): 19.9%
inhibition at 1 µM (COLO-205): 2.38%
inhibition at 10 µM (COLO-205; 10 μM): 15.6%

COc1cc(OC)c(/C=C2/C(=O)N(Cc3ccc(Cl)cc3)c3cc(Cl)ccc32)c(OC)c1 [Compound 7e, (E)-6-chloro-1-(4-chlorobenzyl)-3-(2,4,6-trimethoxybenzylidene) indolin-2-one]
inhibition at 1 µM (MCF-7): 1.59%
inhibition at 10 µM (MCF-7): 46.2%
Growth Inhibition (%) PC-3 10 μM Average (PC-3): 51.68%
inhibition at 1 µM (PC-3): 1.77%
inhibition at 10 µM (PC-3): 52 to 72%
inhibition at 1 µM (COLO-205): 3.82%
inhibition at 10 µM (COLO-205; 10 μM): 22.1%

COc1cc(OC)c(/C=C2/C(=O)N(Cc3ccc(F)cc3)c3cc(Cl)ccc32)c(OC)c1 [Compound 7f, (E)-6-chloro-1-(4-fluorobenzyl)-3-(2,4,6-trimethoxybenzylidene) indolin-2-one]
inhibition at 1 µM (MCF-7): 10.3%
inhibition at 10 µM (MCF-7): 16%
inhibition at 1 µM (PC-3): 0.75%
inhibition at 10 µM (PC-3): 7.08%
Growth Inhibition (%) COLO-205 10 μM Average (COLO-205; 10 μM, 72 h): 3.97%
inhibition at 1 µM (COLO-205): 3.33%
